Patent publication US20170107577A1, “Determining Cancer Aggressiveness, Prognosis and Responsiveness to Treatment” (THE COUNCIL OF THE QUEENSLAND INSTITUTE OF MEDICAL RESEARCH, priority 2014, published 2017)

Legend:
Format in all cases: cell-based
cancer cell lines [1] = experiment: Garnett et al. drug screen re-analysed by TN/Agro/iBCR score; settings: Garnett et al. study; for sensitivity (−log10[IC50]) of high TN score vs low TN score cell lines: dichotomy across median TN score; for sensitivity of high iBCR score vs low iBCR score cell lines: dichotomy across median iBCR score
Procedure: FIG. 24: Drug sensitivity of cancer cell lines according to the TN score. The large published study by Garnett et al. was investigated where the TN score was calculated for each cell line in the study as described in Methods. The cell lines were classified as high or low TN score according to the median TN score to compare the sensitivity of low TN score cell lines (white boxes) and high TN score cell lines (red boxes). Graphs were prepared using GraphPad® Prism showing sensitivity as −log 10[IC50] in boxes (with median marked by a line) and whiskers (marking the 1st and 3rd quartiles and outliers as dots according to Tukey method for plotting the whiskers and outliers). Unpaired two-tailed t test was used for statistical analysis.
FIG. 30: Drug sensitivity of cancer cell lines according to the iBCR score. The large published study by Garnett et al. was investigated where the iBCR score was calculated for each cell line from the Agro and TN scores. The cell lines were classified as high or low iBCR score according to the median iBCR score to compare the sensitivity of low iBCR score cell lines (white boxes) and […] (red boxes). Results according to low and high Agro score were also included.
(§1) Two large studies which treated large panels of cancer cell lines with large panels of anticancer drugs were investigated to determine whether cell lines with high Agro, TN or iBCR scores show different sensitivity to particular anticancer drugs in comparison to cancer cell lines with low Agro, TN or iBCR scores. Briefly, the datasets of gene expression profiling from Genentech (mRNA Cancer Cell Line Profiles GSE10843), Pfizer (Pfizer Molecular Profile Data for Cell Line GSE34211) and Broad Institute/Novartis (Cancer Cell Line Encyclopedia [CCLE] GSE3613) were obtained from GEO and imported into ArrayTools as described earlier. The Agro, TN and iBCR scores for all the cell lines profiled were calculated and cell lines were assigned as high or low for each of the scores based on dichotomy across the median in each dataset. For cell lines which were profiled in more than one dataset, the average scores were used. […] Statistical significance was determined from unpaired two-tailed t-test using GraphPad® Prism.
(§2) In the second approach, published studies which surveyed panels of molecular drugs against, cancer cell lines were analyzed. The Cancer Cell Line Encyclopedia (CCLE) study investigated the pharmacological profiles for 24 anticancer drugs across 479 cancer cell lines which were also profiled with gene expression arrays. We calculated the TN score for each cell line in this study and compared the sensitivity of these cell lines to the anticancer drugs according to the TN score. […] In a similar method, we also analyzed a second large study. Garnett et al., which tested 130 drugs against more than 600 cancer cell lines.

breast cancer cell lines = experiment: Screen of 24 anti-cancer drugs on 10 breast cancer cell lines (MTS/MTA, six days) re-analysed by iBCR score; settings: 5 high vs 5 low iBCR score cell lines
Procedure: FIG. 47: The sensitivity of breast cancer cell lines treated with 24 drugs according to the iBCR score. Breast cancer cell lines (10 cell lines) were cultured in the absence or presence of escalating doses of 24 small molecular anti-cancer drugs. This published study was re-analyzed to compare the sensitivity (calculated as the −log IC50) between high iBCR score cell lines (5 cell lines: BT-549, MDA-MB-231, MDA-MB-436, MDA-MB-468 and BT-20) to low iBCR score cell lines (5 cell lines: Hs.578T, BT-474, MCF-7, T-47D, and ZR-75-1). The iBCR scores were calculated from the Agro and TN scores using the published gene expression dataset for 51 breast cancer cell lines (Neve et al., Cancer Cell, 2006). […] Statistical comparison was performed in GraphPad® Prism using two tailed unpaired t-test.
Breast cancer cell lines (10 cell lines); BT-549, MDA-MB-231, MDA-MB-436, MDA-MB-468, BT-20, Hs.578T, BT-474, MCF-7, T-47D, and ZR-75-1, were cultured in the absence or presence of escalating doses of 24 anti-cancer drugs. The survival of cells was determined six days in comparison to untreated cells using the MTS/MTA assay. The response of the cell lines to the drugs was analyzed in GraphPad® Prism using a dose response curve to calculate the log10 of IC50 (IC50 is the dose required to kill 50% of the cells). Sensitivity was presented as the −log10[IC50]. This drug screen which we published previously (Al-Ejeh et al., Oncotarget, 2014) was re-analyzed according to the iBCR score. The gene expression datasets of 51 breast cancer cell lines by Neve et al. (Cancer Cell, 2006), was analyzed to calculate the Agro and TN scores for each cell line to calculate the iBCR score. Each cell line was assigned as low of high iBCR score by dichotomy across the median of all the cell lines in the Neve et al. dataset. Based on the low or high iBCR score classification, the sensitivity of the 10 cell lines used in our screen was compared between high iBCR score cell lines (5 cell lines) to low iBCR score cell lines (5 cell lines). […] PLC[…] (U73122), INK (SP600125), PAK1 MEK (AS703026 and AZD6244), ERK5 (XMD 8-92 and BIX02188). HSP90 (17-AAa PF0429113 and AUY922), IGF1R (GSK1904529A) and EGFR (Afatinib). The results from our screen are in agreement with the higher sensitivity of high iBCR score cancer cell lines to HSP90, IGF1R and MEK inhibitors we identified from the two previously published large cell line studies.

cancer cell lines [2] = experiment: Cancer Cell Line Encyclopedia (CCLE) drug sensitivity re-analysed by TN/Agro/iBCR score; settings: CCLE study; for sensitivity (IC50) of high TN score vs low TN score cell lines: dichotomy across median TN score; for sensitivity (IC50) of high iBCR score vs low iBCR score cell lines: dichotomy across median iBCR score
Procedure: (§3) FIG. 35: Sensitivity of cancer cell lines to anticancer drugs according to the TN score in the Cancer Cell Line Encyclopedia (CCLE) study. The gene expression data of the cancer cell lines in the study were analyzed to calculate the TN score for each cell line and were assigned to low or high TN score by dichotomy across the median. The IC50 for each of the 24 drugs used in the CCLE study was compared between high and low TN score cell lines and the data shown are those with statistical differences based on unpaired two-tailed t-test performed using GraphPad® Prism.
as §3, with “FIG. 42: Sensitivity of” for “FIG. 35: Sensitivity of”, “to the iBCR score in” for “to the TN score in”, “or high iBCR score by” for “or high TN score by”, “and low iBCR score cell” for “and low TN score cell”, “GraphPad® Prism. As this analysis was also done for the TN score (FIG. 35), results from analysis of the Agro score are also shown in the top row.” for “GraphPad® Prism.”
as §1, §2

Structure (SMILES) | sensitivity (−log10[IC50]) of high TN score vs low TN score cell lines (cancer cell lines [1]) | sensitivity of high iBCR score vs low iBCR score cell lines (cancer cell lines [1]) | further results
CC1(C)CCC(c2ccc(Cl)cc2)=C(CN2CCN(c3ccc(C(=O)NS(=O)(=O)c4ccc(N[C@H](CCN5CCOCC5)CSc5ccccc5)c(S(=O)(=O)C(F)(F)F)c4)cc3)CC2)C1 [ABT-263] | less sensitive | less sensitive | 
C[C@]1(c2nc3c(C(N)=O)cccc3[nH]2)CCCN1 [ABT-888] | less sensitive | less sensitive | 
O=C(NC[C@H](O)CO)c1ccncc1Nc1ccc(I)cc1F [AS703026] |  |  | sensitivity (−log10[IC50]) of high iBCR score vs low iBCR score breast cancer cell lines (breast cancer cell lines): significantly more sensitive
CC1=C(/C=C/C(C)=C/C=C/C(C)=C/C(=O)O)C(C)(C)CCC1 [ATRA, all-trans retinoic acid] | less sensitive | less sensitive | 
CCNC(=O)c1noc(-c2cc(C(C)C)c(O)cc2O)c1-c1ccc(CN2CCOCC2)cc1 [AUY922] |  |  | sensitivity (−log10[IC50]) of high iBCR score vs low iBCR score breast cancer cell lines (breast cancer cell lines): significantly more sensitive
Cn1cnc2c(F)c(Nc3ccc(Br)cc3Cl)c(C(=O)NOCCO)cc21 [AZD6244] |  |  | sensitivity (−log10[IC50]) of high iBCR score vs low iBCR score breast cancer cell lines (breast cancer cell lines): significantly more sensitive
O=C(c1cc(Cc2n[nH]c(=O)c3ccccc23)ccc1F)N1CCN(C(=O)C2CC2)CC1 [AZD-2281] |  | less sensitive | 
CC[C@@H]1C(=O)N(C)c2cnc(Nc3ccc(C(=O)NC4CCN(C)CC4)cc3OC)nc2N1C1CCCC1 [B1-2536] |  | more sensitive | sensitivity of high Agro score vs low Agro score cell lines (cancer cell lines [1]): more sensitive
COc1ccc(-c2cc3nccn3c(Nc3ncccc3C(N)=O)n2)cc1OC [BAY613606] |  | less sensitive | 
Cn1c(=O)n(-c2ccc(C(C)(C)C#N)cc2)c2c3cc(-c4cnc5ccccc5c4)ccc3ncc21 [BEZ235] | more sensitive | more sensitive | 
Cc1ccc(-n2nc(C(C)(C)C)cc2NC(=O)Nc2ccc(OCCN3CCOCC3)c3ccccc23)cc1 [BIRB 0796] | less sensitive | less sensitive | 
Cc1cc(N2CCOCC2)cc2[nH]c(-c3c(NC[C@@H](O)c4cccc(Cl)c4)cc[nH]c3=O)nc12 [BMS-536924] | more sensitive | more sensitive | 
CN(NC(=O)CC(=O)NN(C)C(=S)c1ccccc1)C(=S)c1ccccc1 [Elesclomol] | sensitive |  | 
C#Cc1cccc(Nc2ncnc3cc(OCCOC)c(OCCOC)cc23)c1 [Erlotinib] |  |  | sensitivity (IC50) of high TN score vs low TN score cell lines (cancer cell lines [2]): more sensitive
CCc1cc(Nc2nccc(-c3c(-c4ccc(OC)c(C(=O)Nc5c(F)cccc5F)c4)nc4ccccn34)n2)c(OC)cc1N1CCC(N2CCN(S(C)(=O)=O)CC2)CC1 [GSK1904529A] |  |  | sensitivity (−log10[IC50]) of high iBCR score vs low iBCR score breast cancer cell lines (breast cancer cell lines): significantly more sensitive
CC(C)(C)Cn1c(N)nc2ccc(-c3[nH]c(C(C)(C)C)nc3-c3ccc(F)cc3)nc21 [LY2228820] |  |  | sensitivity (−log10[IC50]) of high iBCR score vs low iBCR score breast cancer cell lines (breast cancer cell lines): significantly more sensitive
CS(=O)(=O)CCNCc1ccc(-c2ccc3ncnc(Nc4ccc(OCc5cccc(F)c5)c(Cl)c4)c3c2)o1 [Lapatinib] |  |  | sensitivity (IC50) of high TN score vs low TN score cell lines (cancer cell lines [2]): more sensitive
Cc1cn(-c2cc(NC(=O)c3ccc(C)c(Nc4nccc(-c5cccnc5)n4)c3)cc(C(F)(F)F)c2)cn1 [Nilotinib] |  | less sensitive | sensitivity (IC50) of high TN score vs low TN score cell lines (cancer cell lines [2]): less sensitive; sensitivity (IC50) of high iBCR score vs low iBCR score cell lines (cancer cell lines [2]): less sensitive
C[C@]1(O)C[C@@H](c2nc(-c3ccc4ccc(-c5ccccc5)nc4c3)c3c(N)nccn32)C1 [OSI-906] | less sensitive |  | 
CC1(C)CC(=O)c2c(C(F)(F)F)nn(-c3ccc(C(N)=O)c(N[C@H]4CC[C@H](OC(=O)CN)CC4)c3)c2C1 [PF0429113] |  |  | sensitivity (−log10[IC50]) of high iBCR score vs low iBCR score breast cancer cell lines (breast cancer cell lines): significantly more sensitive
COc1cc(F)c(F)c(Nc2ccc(I)cc2F)c1NS(=O)(=O)C1(C[C@H](O)CO)CC1 [RDEA-119] | more sensitive |  | 
Cn1cc(C2=C(c3ccc(Cl)cc3Cl)C(=O)NC2=O)c2ccccc21 [SB216763] |  |  | sensitivity of high Agro score vs low Agro score cell lines (cancer cell lines [1]): less sensitive
COc1cc(N2CCC(N3CCN(C)CC3)CC2)ccc1Nc1ncc(Cl)c(Nc2ccccc2S(=O)(=O)C(C)C)n1 [TAE684] |  |  | sensitivity (IC50) of high TN score vs low TN score cell lines (cancer cell lines [2]): less sensitive; sensitivity (IC50) of high iBCR score vs low iBCR score cell lines (cancer cell lines [2]): less sensitive
CN1CCN(c2ccc3nc(-c4c(N)c5c(F)cccc5[nH]c4=O)[nH]c3c2)CC1 [TKI258] |  |  | sensitivity (IC50) of high iBCR score vs low iBCR score cell lines (cancer cell lines [2]): less sensitive
COc1ccc2c(c1)CC[C@@H]1[C@@H]2CC[C@]2(C)[C@@H](NCCCCCCN3C(=O)C=CC3=O)CC[C@@H]12 [U73122] |  |  | sensitivity (−log10[IC50]) of high iBCR score vs low iBCR score breast cancer cell lines (breast cancer cell lines): significantly more sensitive
O=C(CCCCCCC(=O)Nc1ccccc1)NO [Vorinostat] |  | less sensitive | 
CCOc1cc(N2CCC(O)CC2)ccc1Nc1ncc2c(n1)N(C)c1ccccc1C(=O)N2C [XMD 8-92] |  |  | sensitivity (−log10[IC50]) of high iBCR score vs low iBCR score breast cancer cell lines (breast cancer cell lines): significantly more sensitive
CN(C)C(=N)N=C(N)N [metformin] | less sensitive | less sensitive | 
CN(Cc1cnc2nc(N)nc(N)c2n1)c1ccc(C(=O)N[C@@H](CCC(=O)O)C(=O)O)cc1 [methotrexate] | less sensitive | less sensitive | 
